Experimental data published in patent US12667567B2, “Method of preventing blast-induced loss of cochlear and vestibular hair cells and auditory spiral ganglion neurons” (Therapeutic Vision, Inc., priority 2024, dated 2026).
Where “and” joins values, the source holds several entries; their conditions need not be identical. Identical values can stand only once. Entries after “also recorded” stand apart in the source; their conditions may differ.

Key:
[1] = test system: vestibular hair cells in the utricle; assay: Vestibular hair cell density in macula of the utricle after blast; assay type: in vivo, rat
Description: (§1) Blast wave exposure. All rats were exposed to 6 blasts presented once every 5 minutes using equipment and procedures similar to those previously described. (See Manohar, S., et al., Blast-induced hearing loss suppresses hippocampal neurogenesis and disrupts long term spatial memory. Hear Res, 2020. 395: p. 108022; Stachowiak, M. K., et al., Neurogenesis and Oligodendrogenesis in a Mouse Model of Blast-Induced Traumatic Brain Injury. Neurology and Neurobiology, 2020: p. 1-14; and Newman, A. J., et al., Low-cost blast wave generator for studies of hearing loss and brain injury: blast wave effects in closed spaces. J Neurosci Methods, 2015. 242: p. 82-92.) Each rat was anesthetized with an intraperitoneal injection of ketamine (50 mg/kg) and xylazine (6 mg/kg) and stable anesthesia was maintained with supplementary half-doses of anesthetics as needed to maintain a stable anesthetic state. Each anesthetized rat was placed in a wire-mesh cage 5 cm with the snout of the rat facing the front of the blast tube opening. The average blast peak pressure level was 186 dB peak SPL (±0.8 dB, SEM, ~39.9 kPa). The intensity was selected based on our prior study in which we found no evidence of tympanic membrane or ossicular damage in rats exposed at 188 dB pSPL (Newman, A. J. et al.), consistent with an earlier report. (Roberto, M., R. P. Hamernik, and G. A. Turrentine, Damage of the auditory system associated with acute blast trauma. Ann Otol Rhinol Laryngol Suppl, 1989. 140: p. 23-34)
(§2) Experimental groups. The rats were divided into four groups (n=6/group): (1) Blast alone (B), (2) Blast plus earplugs (BEP), (3) Blast plus HK-2 (BHK-2) and (4) Blast plus earplugs plus HK-2 (BEPHK-2). All rats had free access to water and standard lab chow except for the BHK-2 and BEPHK-2 groups that also received HK-2 as noted below.
(§3) HK-2 synthesis and administration. HK-2 was synthesized and evaluated for purity (>99%) as described previously. (Kawada, H. and P. F. Kador, Orally Bioavailable Metal Chelators and Radical Scavengers: Multifunctional Antioxidants for the Coadjutant Treatment of Neurodegenerative Diseases. J Med Chem, 2015. 58(22): p. 8796-805; U.S. Pat. No. 8,877,766 B2) Rats in the BHK-2 group and BEPHK-2 group were fed the same standard laboratory rat chow as the other two groups, however, the chow had been treated with HK-2 as described previously. […] Based on the rat's daily food consumption, measured every 2 days together with body weight, the average oral consumption of HK-2 was ~50 mg/kg/day. […]

inner hair cells (IHC) = assay: Blast-induced inner hair cell loss, cochleogram; assay type: in vivo, rat
Description: as §1, §2
(§4) HK-2 synthesis and administration. HK-2 was synthesized and evaluated for purity (>99%) as described previously. (Kawada, H. and P. F. Kador, Orally Bioavailable Metal Chelators and Radical Scavengers: Multifunctional Antioxidants for the Coadjutant Treatment of Neurodegenerative Diseases. J Med Chem, 2015. 58(22): p. 8796-805; U.S. Pat. No. 8,877,766 B2) Rats in the BHK-2 group and BEPHK-2 group were fed the same standard laboratory rat chow as the other two groups, however, the chow had been treated with HK-2 as described previously. (Chen, G. D., et al.; Manohar, S., et al., Combined antioxidants and anti-inflammatory therapies fail to attenuate the early and late phases of cyclodextrin-induced cochlear damage and hearing loss. Hear Res, 2022. 414: p. 108409.) HK-2 treated food was administered to rats starting 7-days prior to the blast wave exposure and continuing for 30-days following exposure. Based on the rat's daily food consumption, measured every 2 days together with body weight, the average oral consumption of HK-2 was ~50 mg/kg/day. (Id.)
(§5) Tissue preparation. Approximately 60-days after the blast wave exposure, the rats from all four groups were deeply anesthetized with ketamine (50 mg/kg, i.p.) and xylazine (6 mg/kg, i.p.) and decapitated. The temporal bones were quickly removed. Under a dissection microscope, openings were made in the cochlear apex, round window, and the oval window. […]

[2] = test system: spiral ganglion neurons (SGN); assay: Blast-induced loss of spiral ganglion neurons in Rosenthal's canal; assay type: in vivo, rat; conditions: for mean number of SGN per section: middle of basal turn, ~25 kHz
Description: as §1, §2, §3

[3] = test system: auditory nerve fibers (ANF); assay: Blast-induced loss of auditory nerve fibers in habenula perforata; assay type: in vivo, rat; conditions: for mean number of ANF/habenula perforata: middle of basal turn, ~25 kHz
Description: as §1, §2, §3

[4] = test system: vestibular hair cells in the crista of the ampulla; assay: Vestibular hair cell density in crista ampullae of semicircular canals after blast; assay type: in vivo, rat
Description: as §1, with “The intensity was selected based on our prior study in which we found no evidence of tympanic membrane or ossicular damage in rats exposed at 188 dB pSPL (Newman, A. J. et al.), consistent with an earlier report. (Roberto, M., R. P. Hamernik, and G. A. Turrentine, Damage of the auditory system associated with acute blast trauma. Ann Otol Rhinol Laryngol Suppl, 1989. 140: p. 23-34)” left out
HK-2 synthesis and administration. HK-2 was synthesized and evaluated for purity (>99%) as described previously. […] Based on the rat's daily food consumption, measured every 2 days together with body weight, the average oral consumption of HK-2 was ~50 mg/kg/day. […]

outer hair cells (OHC) = assay: Blast-induced outer hair cell loss, cochleogram; assay type: in vivo, rat
Description: as §1, §2, §4, §5

[5] = test system: noise-induced hearing loss and outer hair cell loss; conditions: 95 dB SPL octave band noise, 8 h/d for 21 days; HK-2 before, during and after the exposure; cited from earlier work
[6] = test system: vestibular hair cells in the saccule; assay: Vestibular hair cell density in macula of the saccule after blast; assay type: in vivo, rat
Description: as §1, §2, §4, §5

[7] = BEPHK-2 group (earplugs plus HK-2)
[8] = BHK-2 group, no blast-induced loss in this region
[9] = BHK-2 group, 6 blasts 186 dB peak SPL, HK-2 oral 50 mg/kg/d from 7 d before to 30 d after blast, 60 d post-exposure, 50 mg/kg/day
[10] = HK-2 oral 50 mg/kg/d, 60 d post-exposure, 50 mg/kg/day

In the case of O=C1CCC(=O)N1c1ncc(O)cn1 [HK-2, 1-(5-hydroxypyrimidin-2-yl) pyrrolidine-2,5-dione], the “mean hair cell density, marginal region of the macula of the utricle” value [1, 7] was 122.8 /0.0108 mm^2, the “mean hair cell density, striola region of the macula of the utricle” value [1, 7] was 111.3 /0.0108 mm^2 and the “mean hair cell density, marginal region of the macula of the utricle” value [1, 8] was 122.7 /0.0108 mm^2. For the same compound, the “mean hair cell density, striola region of the macula of the utricle” value [1, 8] was 111.0 /0.0108 mm^2, the IHC loss (inner hair cells (IHC); BEPHK-2 group (earplugs plus HK-2; range stated jointly with BEP group), base of the cochlea) was 14-19% and the “reduction of total IHC loss compared to B group” value (inner hair cells (IHC); [9]) was 57% and ~ 57.3% and ~ 57%. The “mean IHC loss” value (inner hair cells (IHC); BHK-2 group, middle of the cochlea) was ~ 20, the “mean IHC loss” value (inner hair cells (IHC); BHK-2 group, near the apex) was 0% and the “mean IHC loss” value (inner hair cells (IHC); BHK-2 group, near the base of the cochlea) was ~ 67%. For the same compound, the “mean number of SGN per section” value [2, 7] was 41.8 SGN per section, the “mean number of SGN per section” value ([2]; BHK-2 group, B group ~9) was 42.3 SGN per section and the “protection against blast-induced SGN loss (in words)” value [2, 10] was “completely prevented; also recorded: significant protection”. For the same compound, the “increase of SGN versus blast alone” value ([2]; HK-2 treatment, 25 kHz region) was ~ 3.7 fold, the “mean number of ANF/habenula perforata” value [3, 7] was 82.8 ANF/habenula perforata and the “mean number of ANF/habenula perforata” value ([3]; BHK-2 group, B group ~9.2) was 84.2 ANF/habenula perforata. For the same compound, the “protection against blast-induced ANF loss (in words)” value [3, 10] was “completely prevented; also recorded: complete protection”, the “increase of ANF versus blast alone” value ([3]; HK-2 treatment, 25 kHz region) was ~ 8 fold and the “mean hair cell density, crista of the ampulla of the three semicircular canals” value [4, 7] was 122.8 /0.0108 mm^2. The “mean hair cell density, crista of the ampulla of the three semicircular canals” value [4, 8] was 121.8 /0.0108 mm^2, the “OHC loss less than in BEP group” value (outer hair cells (OHC); BEPHK-2 group (earplugs plus HK-2), extreme base) was “about 10%” and the “reduction of total OHC loss compared to B group” value (outer hair cells (OHC); [9]) was 67% and ~ 67%. For the same compound, the “mean OHC loss” value (outer hair cells (OHC); BHK-2 group, 10% location (distance from apex)) was 10%, the “mean OHC loss” value (outer hair cells (OHC); BHK-2 group, 70% location (distance from apex)) was ~ 39% and the “mean OHC loss” value (outer hair cells (OHC); BHK-2 group, high-frequency base of the cochlea) was ~ 76%. For the same compound, the “hearing loss and hair cell loss after noise exposure (in words)” value [5] was “significantly reduced in a dose-dependent manner”, the “mean hair cell density, marginal region of the saccule” value [6, 7] was 123.0 /0.0108 mm^2 and the “mean vestibular hair cell density, striola of the saccule” value [6, 7] was 112.0 hair cell/0.0108 mm^2. The “mean vestibular hair cell density, striola of the saccule” value ([6]; BHK-2 group, B group 71.83) was 102.7 hair cell/0.0108 mm^2, the “mean hair cell density, marginal region of the saccule” value [6, 8] was 122.2 /0.0108 mm^2 and the “protection against blast-induced saccule (striola) hair cell loss (in words)” value [6, 10] was “completely prevented; also recorded: restored hair cell densities to normal levels; also recorded: significant protection”.
